Source: publication PMC9059125 (Journal of Medicinal Chemistry, 2022)
Where two headings read alike, the source gives them in different places. Where a SMILES comes first, the peptide text is derived from it.

How the values were obtained:
[1] = simulated gi fluid, pH 6.8
[2] = simulated gi fluid, pH 1.2
[3] = biological target: T1, human oxytocin receptor (OTR) (Homo sapiens, UniProt P30559); experiment: NIMH PDSP FLIPR-TETRA Ca2+-mobilization assay; format: cell-based; settings: agonist, Ca2+ assay, NIMH PDSP, n ≥ 2; read-out: EC50 ± SEM OTR
T1 construct: NIMH PDSP (data provider)
T1 sequence (P30559 1-389): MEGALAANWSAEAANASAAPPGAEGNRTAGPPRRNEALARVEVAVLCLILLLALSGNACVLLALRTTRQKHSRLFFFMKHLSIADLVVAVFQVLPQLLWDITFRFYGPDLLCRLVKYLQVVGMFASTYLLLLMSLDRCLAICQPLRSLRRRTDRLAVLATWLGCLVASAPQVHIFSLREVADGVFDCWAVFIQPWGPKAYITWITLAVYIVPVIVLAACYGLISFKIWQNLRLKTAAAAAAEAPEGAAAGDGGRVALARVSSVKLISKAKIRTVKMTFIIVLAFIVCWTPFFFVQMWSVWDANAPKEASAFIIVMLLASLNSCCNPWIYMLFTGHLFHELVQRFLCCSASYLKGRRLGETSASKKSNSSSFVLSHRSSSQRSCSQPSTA

SMILES	t1/2 SIF [1] [min]	t1/2 SGF [2] [min]	t1/2 SIF ([1]; pig) [min]	EC50 [3] [µM]
[H][C@@]12CCCN1C(=O)[C@@H]1CSSC[C@H](NC(=O)CNC(=O)[C@H](CCCNC(=N)N)NC(=O)[C@]3([H])CCCN3C(=O)[C@@H]3CSSC[C@H](NC(=O)CNC(=O)[C@H](CCCNC(=N)N)NC2=O)C(=O)N[C@@H](Cc2ccc(O)cc2)C(=O)N[C@@H](Cc2ccccc2)C(=O)N[C@@H](CCC(N)=O)C(=O)N[C@@H](CC(N)=O)C(=O)N3)C(=O)N[C@@H](Cc2ccc(O)cc2)C(=O)N[C@@H](Cc2ccccc2)C(=O)N[C@@H](CCC(N)=O)C(=O)N[C@@H](CC(N)=O)C(=O)N1 [c(VP)2] (HELM PEPTIDE1{C.P.R.G.C.Y.F.Q.N.C.P.R.G.C.Y.F.Q.N}$PEPTIDE1,PEPTIDE1,1:R3-14:R3|PEPTIDE1,PEPTIDE1,5:R3-10:R3|PEPTIDE1,PEPTIDE1,1:R1-18:R2$$$V2.0)	<3			
CC[C@H](C)[C@@H]1NC(=O)[C@H](CCC(=O)O)NC(=O)[C@@H]2CCCN2C(=O)[C@H](Cc2cnc[nH]2)NC(=O)[C@H](CC(=O)O)NC(=O)[C@H](Cc2ccc(O)cc2)NC(=O)[C@H](CC(N)=O)NC(=O)[C@@H]2CSSC[C@H](NC(=O)CN)C(=O)N[C@@H](CSSC[C@@H](C(N)=O)NC1=O)C(=O)N[C@@H](CO)C(=O)N[C@@H](CC(=O)O)C(=O)N1CCC[C@H]1C(=O)N[C@@H](CCCNC(=N)N)C(=O)N2 [Vc1.1, reference compound]		>1440	144 ± 12	
[H][C@@]12CCCN1C(=O)[C@]1([H])CCCN1C(=O)[C@H]([C@@H](C)CC)NC(=O)[C@H](CO)NC(=O)[C@H](CCCCN)NC(=O)[C@H]([C@@H](C)O)NC(=O)[C@@H]1CSSC[C@H](NC(=O)[C@H]([C@@H](C)CC)NC2=O)C(=O)N[C@@H](Cc2ccc(O)cc2)C(=O)N[C@@H]([C@@H](C)CC)C(=O)N[C@@H](CCC(N)=O)C(=O)N[C@@H](CC(N)=O)C(=O)N1 [SFTI-1(OT^[2-5])] (HELM PEPTIDE1{C.T.K.S.I.P.P.I.C.Y.I.Q.N}$PEPTIDE1,PEPTIDE1,1:R3-9:R3|PEPTIDE1,PEPTIDE1,1:R1-13:R2$$$V2.0)			31 ± 3	> 30
[H][C@@]12CCCN1C(=O)[C@@H]1CSSC[C@H](NC(=O)CNC(=O)[C@H](CC(C)C)NC(=O)[C@]3([H])CCCN3C(=O)[C@@H]3CSSC[C@H](NC(=O)CNC(=O)[C@H](CC(C)C)NC2=O)C(=O)N[C@@H](Cc2ccc(O)cc2)C(=O)N[C@@H]([C@@H](C)CC)C(=O)N[C@@H](CCC(N)=O)C(=O)N[C@@H](CC(N)=O)C(=O)N3)C(=O)N[C@@H](Cc2ccc(O)cc2)C(=O)N[C@@H]([C@@H](C)CC)C(=O)N[C@@H](CCC(N)=O)C(=O)N[C@@H](CC(N)=O)C(=O)N1 [c(OT)2] (HELM PEPTIDE1{C.P.L.G.C.Y.I.Q.N.C.P.L.G.C.Y.I.Q.N}$PEPTIDE1,PEPTIDE1,1:R3-14:R3|PEPTIDE1,PEPTIDE1,5:R3-10:R3|PEPTIDE1,PEPTIDE1,1:R1-18:R2$$$V2.0)	<3			
[H][C@@]12CCCN1C(=O)[C@@H]1CSSC[C@H](NC(=O)CNC(=O)[C@H](CC(C)C)NC(=O)[C@]3([H])CCCN3C(=O)[C@@H]3CSSC[C@H](NC(=O)CNC(=O)[C@H](CCCNC(=N)N)NC2=O)C(=O)N[C@@H](Cc2ccc(O)cc2)C(=O)N[C@@H]([C@@H](C)CC)C(=O)N[C@@H](CCC(N)=O)C(=O)N[C@@H](CC(N)=O)C(=O)N3)C(=O)N[C@@H](Cc2ccc(O)cc2)C(=O)N[C@@H](Cc2ccccc2)C(=O)N[C@@H](CCC(N)=O)C(=O)N[C@@H](CC(N)=O)C(=O)N1 [c(OT-VP)] (HELM PEPTIDE1{C.P.L.G.C.Y.F.Q.N.C.P.R.G.C.Y.I.Q.N}$PEPTIDE1,PEPTIDE1,1:R3-14:R3|PEPTIDE1,PEPTIDE1,5:R3-10:R3|PEPTIDE1,PEPTIDE1,1:R1-18:R2$$$V2.0)	<3			
[H][C@@]12CCCN1C(=O)[C@]1([H])CCCN1C(=O)[C@H]([C@@H](C)CC)NC(=O)[C@H](CO)NC(=O)[C@H](CCCCN)NC(=O)[C@H]([C@@H](C)O)NC(=O)[C@@H]1CSSC[C@H](NC(=O)[C@H]([C@@H](C)CC)NC2=O)C(=O)N[C@@H](Cc2ccc(O)cc2)C(=O)N[C@@H](Cc2ccccc2)C(=O)N[C@@H](CCC(N)=O)C(=O)N[C@@H](CC(N)=O)C(=O)N1 [SFTI-1(VP^[2-5])] (HELM PEPTIDE1{C.T.K.S.I.P.P.I.C.Y.F.Q.N}$PEPTIDE1,PEPTIDE1,1:R3-9:R3|PEPTIDE1,PEPTIDE1,1:R1-13:R2$$$V2.0)			12 ± 1	> 30
[H][C@@]12CCCN1C(=O)[C@H](CC)NC(=O)[C@H](CC(N)=O)NC(=O)[C@H](CCC(N)=O)NC(=O)[C@H](Cc1ccccc1)NC(=O)[C@H](Cc1ccc(O)cc1)NC(=O)[C@@H]1CSSC[C@H](NC(=O)CNC(=O)[C@H](CCCNC(=N)N)NC2=O)C(=O)N[C@@H]([C@@H](C)O)C(=O)N[C@@H](CCCCN)C(=O)N[C@@H](CO)C(=O)N[C@@H]([C@@H](C)CC)C(=O)N2CCC[C@@]2([H])C(=O)N2CCC[C@@]2([H])C(=O)N[C@@H]([C@@H](C)CC)C(=O)N1 [SFTI-1(VP^[2-9])] (HELM PEPTIDE1{[Abu].P.R.G.C.T.K.S.I.P.P.I.C.Y.F.Q.N}$PEPTIDE1,PEPTIDE1,5:R3-13:R3|PEPTIDE1,PEPTIDE1,1:R1-17:R2$$$V2.0)	<3			> 30
[H][C@@]12CCCN1C(=O)[C@H](CC)NC(=O)[C@H](CC(N)=O)NC(=O)[C@H](CCC(N)=O)NC(=O)[C@H]([C@@H](C)CC)NC(=O)[C@H](Cc1ccc(O)cc1)NC(=O)[C@@H]1CSSC[C@H](NC(=O)CNC(=O)[C@H](CC(C)C)NC2=O)C(=O)N[C@@H]([C@@H](C)O)C(=O)N[C@@H](CCCCN)C(=O)N[C@@H](CO)C(=O)N[C@@H]([C@@H](C)CC)C(=O)N2CCC[C@@]2([H])C(=O)N2CCC[C@@]2([H])C(=O)N[C@@H]([C@@H](C)CC)C(=O)N1 [SFTI-1(OT^[2-9])] (HELM PEPTIDE1{[Abu].P.L.G.C.T.K.S.I.P.P.I.C.Y.I.Q.N}$PEPTIDE1,PEPTIDE1,5:R3-13:R3|PEPTIDE1,PEPTIDE1,1:R1-17:R2$$$V2.0)			3 ± 1	> 30
